Patent publication US12427168B2, “Extracellular vesicle and use thereof in skin products” (EV CELL BIOTECH (GUANGZHOU) CO., LTD., priority 2020, dated 2025)

Assays:
mice [1] = assay: Hair regrowth with IEVs alone or combined with anti-aging substances; format: in vivo; settings: combined with IEVs, FIG. 12
Experimental: After systemic injection of PKH26-IEV in C57 mice, rapamycin (5 mg/kg), metformin (100 mg/kg), dadatinib (5 mg/kg) and resveratrol (10 mg/kg) were intraperitoneally injected for 7 days, respectively.

[2] = system: skin mesenchymal stem cells; assay: Uptake of IEVs by skin mesenchymal stem cells, cell smear; format: cell-based; settings: FIG. 13D
active-β-catenin = assay: Active-β-catenin intensity in the skin, immunofluorescence; format: in vivo; settings: with IEVs, FIG. 13E
mice [3] = assay: Wound healing of 1 cm×1 cm full-thickness wound; format: in vivo; settings: for effect on promotion of wound healing by IEVs: with IEVs, FIG. 15B
Text: A 1 cm×1 cm full-thickness wound was made in mice, and the effect of systemic injections of MSCs and IEVs on wound healing was examined.

Wnt signaling pathways = assay: Skin excretion of IEVs under Wnt agonist or inhibitor (Western Blot, immunofluorescence); format: in vivo; settings: Licl 10 mg/kg or XAV939 1 mg/kg intraperitoneally for 3 days, FIGS. 13A-B

| Compound | effect of the combination on hair regrowth promotion by IEVs (mice [1]) | effect on uptake of IEVs by skin mesenchymal stem cells [2] | effect on IEV-stimulated activation of Wnt signaling pathways in the skin (active-β-catenin) | effect on promotion of wound healing by IEVs (mice [3]) | effect on skin excretion of IEVs (Wnt signaling pathways) | IEVs accumulation in the wound site (mice [3]; immunofluorescence, FIG. 15C) |
| --- | --- | --- | --- | --- | --- | --- |
| CN(C)C(=N)N=C(N)N [metformin] | promoted the promotion effects of hair regrowth by IEVs |  |  |  |  |  |
| Oc1nc(-c2ccc(C(F)(F)F)cc2)nc2c1CSCC2 [XAV939] |  | affected | attenuated this activation process | significantly attenuated the promotion of wound healing by IEVs |  |  |
| [Cl-].[Li+] [Licl] |  | affected |  | accelerated the promotion of wound healing by IEVs | significant increase in skin excretion of IEVs | significantly increased IEVs accumulation in the wound site |
| Oc1ccc(C=Cc2cc(O)cc(O)c2)cc1 [resveratrol] | promoted the promotion effects of hair regrowth by IEVs |  |  |  |  |  |
